In brackets after ≈: the same amount, converted by molar mass.
Tests used:
mAb 13C8 [1] = test: indirect competitive ELISA (icELISA) with mAb 13C8; format: binding, BALB/c mice
Experimental: (§1) Microplates were coated with coating antigens. Different concentrations of the standard (50 µL) and the mAb (50 µL) were added to each well, and the plates were incubated for 20 min at 37 °C. The plates were washed with PBS (0.01 M, containing 0.05% (v/v) Triton X-100), 100 μL of goat anti-mouse IgG-HRP conjugate solution was added to each well, and the plates were incubated for 20 min at 37 °C. After the plates were washed with PBS (0.01 M, containing 0.05% Triton X-100, v/v), 100 µL of TMB single-component substrate solution was added to each well, followed by incubation at 37 °C for 10 min. Finally, the reaction was terminated, and the absorbance at 450 nm was measured by a microplate reader.
(§2) Taking the logarithm of the carbofuran concentration as the abscissa and (B/B0)% as the ordinate, the standard curves for ELISA and QD-LFIA were obtained based on the Morgan–Mercer–Flodin (MMF) model, which were fitted by CurveExpert 1.4.0 software (https://www.curveexpert.net, accessed on 15 July 2022). For the ELISA method, B and B0 are the absorbance of the sample well and blank well, respectively. For the QD-LFIA method, B and B0 are the T/C (fluorescence intensity of the test line/fluorescence intensity of the control line) of the sample and blank control, respectively.
(§3) The inhibition ratio (I%) was calculated as (B0-B)/B0 × 100%. IC50 is the concentration of the carbofuran at an I% of 50%, and the limit of detection (LOD) was determined as the concentration showing 10% of inhibition.
(§4) The cross-reactivities (CRs) of benfuracarb, carbosulfan, 3-hydroxy-carbofuran, metolcarb, carbaryl, isoprocarb and aldicarb with carbofuran were assessed by ELISA and QD-LFIA. CR was calculated as CR (%) = [IC50 (carbofuran)/IC50 (analogues)] × 100%.
The microplate was coated with the coating antigens DDB-BSA (1 µg/mL), DDB-OVA (0.5 µg/mL), MDA-BSA (0.2 µg/mL) and MDA-OVA (0.1 µg/mL), and the concentration of mAb 13C8 was 0.03 µg/mL. Carbofuran standards (0, 0.05, 0.15, 0.45, 1.35 and 4.05 ng/mL) were detected to obtain a standard curve, and the IC50 was calculated. […] In the icELISA used in this study, free antigen (carbofuran) in solution competed with the coating antigen on the microplate for antibody 13C8; therefore, the IC50 value was negatively correlated with the antibody-binding ability of free antigen competing with coating antigens.
The ELISA method was developed with the antibody 13C8–antigen MDA-BSA pair. Under the optimized coating antigen concentration (0.1 μg/mL), HRP-conjugated goat anti-mouse IgG concentration (1 μg/mL), antibody concentration (0.03 μg/mL) and working buffer parameters (5 mM PBS at pH 7.4), a standard curve was obtained with the concentration of carbofuran on the abscissa and the inhibition ratio (B/B0) on the ordinate.

mAb 13C8 [2] = test: quantum dot-based LFIA (QD-LFIA) with mAb 13C8; format: binding, BALB/c mice
Experimental: One milliliter of QDs was added to 9 mL of MES (0.054 M at pH 6.0) and centrifuged at 10,956× g for 20 min. Then, the precipitate was resuspended in 10 mL of MES (0.05 M at pH 6.0). After dispersion by ultrasonication for 2 min, EDC (20 mg) and NHS (20 mg) were added, and the reaction mixture was incubated for 30 min, followed by centrifugation at 10,956× g for 20 min. The precipitate was resuspended in 10 mL of MES (0.05 M at pH 6.0). Then, 1 mg of the mAb dissolved in 10 mL MES (0.027 M at pH 8.0) was added to the QD mixture and shaken at 25 °C and 180 rpm for 90 min. After the reaction, 5 mL of MES (0.054 M at pH 6.0 containing 1.6% BSA, w/v) was added, and the mixture was shaken at 25 °C and 180 rpm for 40 min, followed by centrifugation at 10,956× g for 20 min. The precipitate was resuspended in 10 mL of PB (0.01 M at pH 6.0, containing 5% casein, 1% glucose, 1.5% alanine and 0.05% NaN3, w/v) and dispersed by ultrasonication for 2 min.
The conjugate pad (6 mm × 300 mm) was pretreated with PBS (containing 0.5% Triton X-100, 0.5% alanine and 0.05% NaN3, w/v). Then, 1 mL of the mAb–QD conjugate was sprayed onto the pretreated conjugate pad at a flow rate of 10 μL/cm, and the pad was dried at 37 °C for 2 h. Other applied protocols were similar to those mentioned above.
as §2, §3, §4
Then, to prepare QD-LFIA test strips, DDB-BSA (40 μg/mL), DDB-OVA (50 μg/mL), MDA-BSA (35 μg/mL) and MDA-OVA (30 μg/mL) were dispensed onto the NC membrane, and antibody 13C8 was conjugated to the QDs. Carbofuran standards (0, 0.05, 0.15, 0.45, 1.35 and 4.05 ng/mL) were detected to obtain a standard curve, and the IC50 was calculated. […] In LFIA, carbofuran in solution competed with the coating antigen on the NC membrane for antibody 13C8 conjugated to the QDs.
A standard curve was developed with the inhibition ratio (B/B0) versus the logarithm of the concentration of carbofuran.

mAb 18G3 = test: ELISA reactivity of hybridoma supernatant, cell line 18G3; format: binding, BALB/c mice; settings: cell line 18G3 supernatant, 50 ng/mL pesticide
Experimental: The desired antibodies with the highest affinity were screened by icELISA with carbofuran as a competitive compound, and hybridoma cells were cloned by the limited dilution method. Then, the selected hybridoma cells were injected into mice for ascites production. Finally, the mAbs were purified by (NH4)2SO4 with saturation of 50% and further purified by an SPA column.
as §1, §3
Then, the reactivity of the supernatant of the six cell lines to 50 ng/mL carbofuran, benfuracarb and carbosulfan was assessed by ELISA, and the results are shown in Table 1. […] Because 13C8 had the highest reactivity with carbofuran, benfuracarb and carbosulfan among the six cell lines, it was injected into mice for ascites production, and the mAbs were purified by a protein A column for further experiments.

[3] = test system: mAb with the immunogen BFNB-KLH; settings: homologous coating antigen BFNB-OVA; cited from earlier work

Compound: CNC(=O)Oc1cccc2c1OC(C)(C)C2 [carbofuran]
- CR (%) (ELISA) (mAb 13C8 [1]; CR = IC50(carbofuran)/IC50(analogue) x 100%, optimized ELISA with mAb 13C8): 100.0%
- IC50 (ELISA) (mAb 13C8 [1]; antibody 13C8, coating antigen DDB-BSA (1 µg/mL)): 0.19 ± 0.01 ng/mL (≈ 0.859 nM)
- IC50 (ELISA) (mAb 13C8 [1]; antibody 13C8, coating antigen DDB-OVA (0.5 µg/mL)): 0.22 ± 0.02 ng/mL (≈ 0.994 nM)
- IC50 (ELISA) (mAb 13C8 [1]; antibody 13C8, coating antigen MDA-BSA (0.2 µg/mL)): 0.20 ± 0.02 ng/mL (≈ 0.904 nM)
- IC50 (ELISA) (mAb 13C8 [1]; antibody 13C8, coating antigen MDA-OVA (0.1 µg/mL)): 0.17 ± 0.01 ng/mL (≈ 0.768 nM)
- detection limit (ELISA) (mAb 13C8 [1]; concentration showing 10% of inhibition, optimized ELISA): 0.02 ng/mL
- working range (ELISA) (mAb 13C8 [1]; optimized ELISA): 0.02 to 2.09 ng/mL
- IC50 (ELISA) (mAb 13C8 [1]; optimized ELISA, mAb 13C8 0.03 μg/mL, coating antigen 0.1 μg/mL, given as MDA-BSA and MDA-OVA, unit from text): 0.18 ± 0.03 ng/mL (≈ 0.814 nM)
- CR (%) (QD-LFIA) (mAb 13C8 [2]; CR = IC50(carbofuran)/IC50(analogue) x 100%, QD-LFIA with mAb 13C8): 100.0%
- IC50 (QD-LFIA) (mAb 13C8 [2]; antibody 13C8, antigen DDB-BSA (40 μg/mL) on NC membrane): >1000 ng/mL
- IC50 (QD-LFIA) (mAb 13C8 [2]; antibody 13C8, antigen DDB-OVA (50 μg/mL) on NC membrane): >1000 ng/mL
- IC50 (QD-LFIA) (mAb 13C8 [2]; antibody 13C8, antigen MDA-BSA (35 μg/mL) on NC membrane): 0.68 ± 0.03 ng/mL (≈ 3.07 nM)
- IC50 (QD-LFIA) (mAb 13C8 [2]; antibody 13C8, antigen MDA-OVA (30 μg/mL) on NC membrane): 0.66 ± 0.03 ng/mL (≈ 2.98 nM)
- detection limit (QD-LFIA) (mAb 13C8 [2]; concentration showing 10% of inhibition): 0.04 ng/mL
- reaction of QD-LFIA test strips (mAb 13C8 [2]; homologous coating antigens DDB-BSA and DDB-OVA): almost no reaction
- working range (QD-LFIA) (mAb 13C8 [2]; optimized QD-LFIA): 0.04 to 4.21 ng/mL
- IC50 (QD-LFIA) (mAb 13C8 [2]; optimized QD-LFIA, mAb 13C8-QD, T line antigen 30 μg/mL, given as MDA-BSA and MDA-OVA): 0.67 ± 0.08 ng/mL (≈ 3.03 nM)
- IC50 of QD-LFIA with heterologous coating antigens (mAb 13C8 [2]; span over MDA-BSA and MDA-OVA): 0.66–0.68 ng/mL
- Reactivity of mAb (I%) (mAb 18G3): 86%
- IC50 (ic-ELISA) [3]: 0.3 ng/mL (≈ 1.36 nM)

Source: paper PMC9332470, “Production and Selection of Antibody–Antigen Pairs for the Development of Immunoenzyme Assay and Lateral Flow Immunoassay Methods for Carbofuran and Its Analogues” (Biosensors, 2022)
